Data reported in patent publication US20240269139A1, “COMPOUNDS FOR TARGETED PROTEIN DEGRADATION OF KINASES” (DANA-FARBER CANCER INSTITUTE, INC., priority 2020, published 2024).

Target: protein kinases (human kinome)
Assay type: cell-based
Conditions: for Kinase hits: kinases significantly downregulated vs DMSO (fold change cutoff −1.25, P-value<0.01), ≤8 h, 0.1-5 μM degrader, 7 cell lines; for Total no. kinase hits: number of degraded kinases per library compound; for kinases the bifunctional compound degrades: as stated for the structure in the embodiments; for logFC: BTK (Q06187-2), experiment wp055; for logFC of BTK (Q06187-2): Experiment wp055
Description: Although development of targeted protein degraders requires a POI binder, among already-liganded proteins such as kinases, it was hypothesized that different targets would have a different propensity for current approaches to degrader-mediated destruction, which was termed ‘degradability’. […] It was rationalized that the probability of identifying the same kinase as a false positive in multiple treatments is low, therefore this analysis served to also assess the robustness of our data and subsequent interpretations. […] Overall, 62 protein kinases were degraded in more than 10 independent treatments, and remarkably, 9 of these (CDK4, AURKA, FER, WEE1, BLK. LIMK2, CDK6, GAK, LIMK1) were each degraded in at least 40 of the 154 independent treatments, emphasizing their predisposition to induced degradation (FIG. 1G; Appendix I).
Next, the frequency of degradation assessment was corrected for over-representation of molecules in the full dataset by omitting replicate profiling of compounds under different experimental conditions, to remove any bias. […] Unsurprisingly, the top degradable kinases mirror those from the previous analysis (CDK4, AURKA, FER, WEE1, BLK), confirming that in sufficiently large datasets, even with over-representation of certain molecules, frequency of degradation is a good measure of general tractability.

| SMILES | Kinase hits | Total no. kinase hits | kinases the bifunctional compound degrades | logFC | logFC of BTK (Q06187-2) |
| --- | --- | --- | --- | --- | --- |
| CC(=O)c1c(C)c2cnc(Nc3ccc(N4CCN(CCCCNC(=O)CNc5cccc6c5C(=O)N(C5CCC(=O)NC5=O)C6=O)CC4)cn3)nc2n(C2CCCC2)c1=O (centres unmarked) [BSJ-01-147] | CDK4, CDK6, WEE1 | 3 |  |  |  |
| CC(=O)c1c(C)c2cnc(Nc3ccc(N4CCN(CCOCCOCCOCCNC(=O)COc5cccc6c5C(=O)N(C5CCC(=O)NC5=O)C6=O)CC4)cn3)nc2n(C2CCCC2)c1=O (centres unmarked) [BSJ-03-123] | BCKDK, CDK4, CDK6, COQ8A, PDK1, PDK2, PDK3, WEE1 | 8 |  |  |  |
| CC(=O)c1c(C)c2cnc(Nc3ccc(N4CCN(CCCCNC(=O)COc5cccc6c5C(=O)N(C5CCC(=O)NC5=O)C6=O)CC4)cn3)nc2n(C2CCCC2)c1=O (centres unmarked) [BSJ-03-204] | CDK4, CDK6, PDK1, WEE1 | 4 |  |  |  |
| CN(C)C(=O)c1cc2cnc(Nc3ccc(N4CCN(CCCCNC(=O)COc5cccc6c5C(=O)N(C5CCC(=O)NC5=O)C6=O)CC4)cn3)nc2n1C1CCCC1 (centres unmarked) [BSJ-04-132] | BCKDK, CDK4, CDK6, COQ8A, PDK1, PDK2, PDK3, | 3 |  |  |  |
| O=C(COc1cccc2c1C(=O)N(C1CCC(=O)NC1=O)C2=O)NCCCCCCCN1CCc2cc(Nc3ncc(C4CC4)c(NCCCNC(=O)C4CCC4)n3)ccc2C1 (centres unmarked) [BSJ-04-178] | AAK1, AURKA, AURKB, BMP2K, CDK10, CDK9, GAK, MARK2, MARK3, MARK4, SIK2, STKI7A, STK17B, SNRK, ULK1, WEE1 | 16 | AAK1, AURKA, AURKB. BMP2K, CDK10, CDK9, GAK, MARK2, MARK3, MARK4, SIK2, STK17A, STK17B, SNRK, ULK1, and WEE1 |  |  |
| Cc1ncsc1-c1ccc([C@H](C)NC(=O)[C@@H]2C[C@@H](O)CN2C(=O)[C@@H](NC(=O)CCCCCN2CCc3cc(Nc4ncc(C5CC5)c(NCCCNC(=O)C5CCC5)n4)ccc3C2)C(C)(C)C)cc1 [BSJ-05-026] | AAK1, GAK, MARK2, MARK3, MARK4, RPS6KB1, SIK2, SIK3, SNRK, STKI7A, STKI7B, ULK1, WEE1 | 13 |  |  |  |
| Cc1ccc(NC(=O)c2cccc(C(F)(F)F)c2)cc1N1Cc2cnc(Nc3ccc(N4CCN(CCCCCC(=O)N[C@H](C(=O)N5C[C@H](O)C[C@H]5C(=O)N[C@@H](C)c5ccc(-c6scnc6C)cc5)C(C)(C)C)CC4)nc3)nc2N(C)C1=O [DB1114, (2S,4R)-1-((S)-3,3-dimethyl-2-(6-(4-(5-((8-methyl-6-(2-methyl-5-(3-(trifluoromethyl)benzamido)phenyl)-7-oxo-5,6,7,8-tetrahydropyrimido[4,5-d]pyrimidin-2-yl)amino)pyridin-2-yl)piperazin-1-yl)hexanamido)butanoyl)-4-hydroxy-N—((S)-1-(4-(4-methylthiazol-5-yl)phenyl)ethyl)pyrrolidine-2-carboxamide] |  | 31 |  |  |  |
| Cc1ccc(NC(=O)c2cccc(C(C)(C)C#N)c2)cc1Nc1ccc2ncn(CCOCCOCCC(=O)N[C@H](C(=O)N3C[C@H](O)C[C@H]3C(=O)NCc3ccc(-c4scnc4C)cc3)C(C)(C)C)c(=O)c2c1 [DD-02-198] | MAPK14 | 1 | MAPK14 |  |  |
| CC(C)(C)c1nc(-c2cccc(NS(=O)(=O)c3c(F)cccc3F)c2F)c(-c2ccnc(NCCOCCNC(=O)CCOCCOCCNc3cccc4c3CN(C3CCC(=O)NC3=O)C4=O)n2)s1 (centres unmarked) [DD-03-107] | BCKDK, COQ8A, LIMK1, PDK1, PDK2, PDK3 | 6 | BCKDK, COQ8A, LIMK1, PDK1, PDK2, and PDK3 |  |  |
| Nc1ncnc2c1c(-c1ccc(Oc3ccccc3)cc1)nn2[C@@H]1CCCN(C(=O)CCCN2CCN(CCNC(=O)CCOCCOCCNc3cccc4c3C(=O)N(C3CCC(=O)NC3=O)C4=O)CC2)C1 (some centres unmarked) [DD-03-119] | ABL2, BLK, CSK, FYN, LCK, SRC, TEC | 3 | ABL2, BLK, CSK, FYN, LCK, SRC, and TEC |  |  |
| Cc1c(NC(=O)c2ccc(C(C)(C)C)cc2)cccc1-c1cn(C)c(=O)c(Nc2ccc(C(=O)N3CCN(CCCCCCNC(=O)CNc4cccc5c4C(=O)N(C4CCC(=O)NC4=O)C5=O)CC3)cc2)n1 (centres unmarked) [DD-03-171] | BTK | 1 |  |  |  |
| Cc1c(NC(=O)c2ccc(C(C)(C)C)cc2)cccc1-c1cn(C)c(=O)c(Nc2ccc(C(=O)N3CCN(CCCCCCNC(=O)COc4cccc5c4C(=O)N(C4CCC(=O)NC4=O)C5=O)CC3)cc2)n1 (centres unmarked) [DD-04-118] | BTK | 1 |  |  |  |
| Cc1c(NC(=O)c2ccc(C(C)(C)C)cc2)cccc1-c1cn(C)c(=O)c(Nc2ccc(C(=O)N3CCN(CCCCCCNC(=O)CNc4cccc5c4C(=O)N(C4CCC(=O)NC4=O)C5=O)CC3)cc2)n1 (centres unmarked) [DD.03.171] |  |  |  | −3.077 | −3.077 |
| Cc1c(NC(=O)c2ccc(C(C)(C)C)cc2)cccc1-c1cn(C)c(=O)c(Nc2ccc(C(=O)N3CCN(CCCCCCNC(=O)COc4cccc5c4C(=O)N(C4CCC(=O)NC4=O)C5=O)CC3)cc2)n1 (centres unmarked) [DD.04.118] |  |  |  | −3.263 | −3.263 |
| COc1cc(N2CCN(CCOCCOCCC(=O)N[C@H](C(=O)N3C[C@H](O)C[C@H]3C(=O)N[C@@H](C)c3ccc(-c4scnc4C)cc3)C(C)(C)C)CC2)ccc1Nc1ncc2c(n1)N(C)c1ccccc1C(=O)N2CC(F)(F)F [FMF-03-178-1] | BLK, CSK | 2 |  |  |  |
| O=C1CCC(N2C(=O)c3cccc(NCCOCCOCCOCCOCCC(=O)Nc4cccc(CN5CCC(NC(=O)c6[nH]ncc6NC(=O)c6c(Cl)cccc6Cl)CC5)c4)c3C2=O)C(=O)N1 (centres unmarked) [FMF-04-147-1] | CDK11A, CDK9, CLK1, GSK3A, GSK3B, PIK3CG, SGK3 | 7 | CDK11A, CDK9, CLK1, GSK3A, GSK3B, PIK3CG, and SGK3 |  |  |
| Cc1ncsc1-c1ccc([C@H](C)NC(=O)[C@@H]2C[C@@H](O)CN2C(=O)[C@@H](NC(=O)CCOCCOCCN2CCN(c3ccc(Nc4ncc(Cl)c(Nc5ccccc5S(=O)(=O)C(C)C)n4)cc3)CC2)C(C)(C)C)cc1 [FMF-06-098-1, (2S,4R)-1-((S)-2-(3-(2-(2-(4-(4-((5-chloro-4-((2-(isopropylsulfonyl)phenyl)amino)pyrimidin-1320 2-yl)amino)phenyl)piperazin-I-yl)ethoxy)ethoxy)propanamido)-3,3-dimethylbutanoyl)-4-1321 hydroxy-N—((S)-1-(4-(4-methylthiazol-5-yl)phenyl)ethyl)pyrrolidine-2-carboxamide] | AAK1, ABL2, AURKA, AURKB, BUB1B, CDC7, CDK1, CDK12, CDK13, CDK2, CDK4, CDk6, CDK7, CDK9, CHEK1, CSNK1D, EPHA1, FER, FGFR1, GAK, IRAK4, ITK, LIMK2, MAP4K2, MAP4K3, MAPK6, MAPK7, MARK4, MELK, PKN3, PLK4, PRKAA1, PTK2, PTK6, RPS6KA4, SIK2, STK35, TNK2, UHMK1, ULK1, WEE1 | 42 | AAK1, ABL2, AURKA, AURKB, BUB1B, CDC7, CDK1, CDK12, CDK13, CDK2, CDK4, CDk6, CDK7, CDK9, CHEK1, CSNK1D. EPHA1, FER, FGFR1, GAK, IRAK4, ITK, LIMK2, MAP4K2, MAP4K3, MAPK6, MAPK7, MARK4, MELK, PKN3, PLK4, PRKAA1, PTK2, PTK6, RPS6KA4, SIK2, STK35, TNK2. UHMK1, ULK1, and WEE1 |  |  |
| O=C(COc1cccc2c1C(=O)N(C1CCC(=O)NC1=O)C2=O)NCCCCCCCC(=O)NC1(c2ccc(-c3nc4ccn5c(=O)[nH]nc5c4cc3-c3ccccc3)cc2)CCC1 (centres unmarked) [INY-01-140-1] | PDK1, PDK2, PDK3 | 3 | PDK1, PDK2, and PDK3 |  |  |
| C[C@@H]1C[C@@H](O)c2ncnc(N3CCN(C(=O)[C@H](CNCCCCCCCCNC(=O)COc4cccc5c4C(=O)N(C4CCC(=O)NC4=O)C5=O)c4ccc(Cl)cc4)CC3)c21 (some centres unmarked) [INY-02-164] | AKT1, AKT2, AKT3, BCKDK, PDK1 | 5 |  |  |  |
